{"source": "patent US20230414607A1", "about": "“METHODS OF TREATMENT” (BOW RIVER LLC, priority 2017, published 2023)", "test": "AUC and Cmax target safe levels of CYP3A4 substrate drugs (Table 1)", "source_text": "In various embodiments, the “Target safe levels” are non-limiting examples of the upper limit of fold change or percent of baseline where in some embodiments the benefits of treating the patient for the condition or disease for which the CYP3A4 substrate drug is indicated outweigh the risks associated with the effects of a drug-drug interaction. […] For purposes of the present methods, the blood plasma levels measured during co-administration of the CYP3A4 substrate drug with […] may be used to estimate the posaconazole DDI decay curve, e.g., using equation 1.", "key": {"[1]": {"settings": "upper limit where benefits outweigh risks, approximation, can vary by about ±25%"}}}
{"molecule": "CN(C(=O)c1ccccc1)[C@@H]1C[C@H]2O[C@@](C)([C@@H]1O)n1c3ccccc3c3c4c(c5c6ccccc6n2c5c31)C(=O)NC4", "note": "[CGP62221]", "values": [{"measurement": "AUC target safe level, Fold change", "setting": "human", "value": 3.5, "unit": "fold"}, {"measurement": "AUC target safe level, Percent of baseline", "setting": "human", "value": 350, "unit": "%"}]}
{"molecule": "COc1cc2c(cc1OC)[C@H]1C[C@@H](O)[C@H](CC(C)C)CN1CC2", "note": "[[+]-α-HTBZ]", "values": [{"measurement": "AUC target safe level, Fold change", "setting": "human", "value": 2.1, "unit": "fold"}, {"measurement": "AUC target safe level, Percent of baseline", "setting": "human", "value": 210, "unit": "%"}, {"measurement": "Cmax target safe level, Fold change", "setting": "human", "value": 1.7, "unit": "fold"}, {"measurement": "Cmax target safe level, Percent of baseline", "setting": "human", "value": 170, "unit": "%"}]}
{"molecule": "CNC(=O)c1ccc(N2C(=S)N(c3cnc(C#N)c(C(F)(F)F)c3)C(=O)C23CCC3)cc1F", "note": "[apalutamide]", "values": [{"measurement": "AUC target safe level, Fold change", "setting": "human", "value": 1.24, "unit": "fold"}, {"measurement": "AUC target safe level, Percent of baseline", "setting": "human", "value": 124, "unit": "%"}, {"measurement": "Cmax target safe level, Fold change", "setting": "human", "value": 1.38, "unit": "fold"}, {"measurement": "Cmax target safe level, Percent of baseline", "setting": "human", "value": 138, "unit": "%"}]}
{"molecule": "O=C1CCc2ccc(OCCCCN3CCN(c4cccc(Cl)c4Cl)CC3)cc2N1", "note": "[aripiprazole]", "values": [{"measurement": "AUC target safe level, Fold change", "setting": "[1]", "value": 1.7, "unit": "fold"}, {"measurement": "AUC target safe level, Percent of baseline", "setting": "[1]", "value": 170, "unit": "%"}, {"measurement": "Cmax target safe level, Fold change", "setting": "[1]", "value": 1.4, "unit": "fold"}, {"measurement": "Cmax target safe level, Percent of baseline", "setting": "[1]", "value": 140, "unit": "%"}]}
{"molecule": "O=c1ccc2ccc(OCCCCN3CCN(c4cccc5sccc45)CC3)cc2[nH]1", "note": "[brexpiprazole]", "values": [{"measurement": "AUC target safe level, Fold change", "setting": "human", "value": 2, "unit": "fold"}, {"measurement": "AUC target safe level, Percent of baseline", "setting": "human", "value": 200, "unit": "%"}, {"measurement": "Cmax target safe level, Fold change", "setting": "human", "value": 1.2, "unit": "fold"}, {"measurement": "Cmax target safe level, Percent of baseline", "setting": "human", "value": 120, "unit": "%"}]}
{"molecule": "CN(C)C(=O)N[C@H]1CC[C@H](CCN2CCN(c3cccc(Cl)c3Cl)CC2)CC1", "note": "[cariprazine]", "values": [{"measurement": "AUC target safe level, Percent of baseline", "setting": "human", "value": 400, "unit": "%"}]}
{"molecule": "COc1c(OCCCN2CCOCC2)ccc2c1N=C(NC(=O)c1cnc(N)nc1)N1CCN=C21", "note": "[copanlisib]", "values": [{"measurement": "AUC target safe level, Fold change", "setting": "human", "value": 1.53, "unit": "fold"}, {"measurement": "AUC target safe level, Percent of baseline", "setting": "human", "value": 153, "unit": "%"}, {"measurement": "Cmax target safe level, Fold change", "setting": "human", "value": 1.03, "unit": "fold"}, {"measurement": "Cmax target safe level, Percent of baseline", "setting": "human", "value": 103, "unit": "%"}]}
{"molecule": "CC(=O)OCC(=O)[C@@]12N=C(C)O[C@@H]1C[C@H]1[C@@H]3CCC4=CC(=O)C=C[C@]4(C)[C@H]3[C@@H](O)C[C@@]12C", "note": "[deflazacort]", "values": [{"measurement": "AUC target safe level, Fold change", "setting": "human", "value": 3, "unit": "fold"}, {"measurement": "AUC target safe level, Percent of baseline", "setting": "human", "value": 300, "unit": "%"}]}
{"molecule": "C[C@H](Nc1ncnc2[nH]cnc12)c1cc2cccc(Cl)c2c(=O)n1-c1ccccc1", "note": "[duvelisib]", "values": [{"measurement": "AUC target safe level, Fold change", "setting": "human", "value": 2, "unit": "fold"}, {"measurement": "AUC target safe level, Percent of baseline", "setting": "human", "value": 200, "unit": "%"}, {"measurement": "Cmax target safe level, Fold change", "setting": "human", "value": 1.7, "unit": "fold"}, {"measurement": "Cmax target safe level, Percent of baseline", "setting": "human", "value": 170, "unit": "%"}]}
{"molecule": "COc1cccc(-c2c(C)n(Cc3c(F)cccc3C(F)(F)F)c(=O)n(C[C@H](NCCCC(=O)O)c3ccccc3)c2=O)c1F", "note": "[elagolix sodium]", "values": [{"measurement": "AUC target safe level, Fold change", "setting": "human", "value": 2.2, "unit": "fold"}, {"measurement": "AUC target safe level, Percent of baseline", "setting": "human", "value": 220, "unit": "%"}, {"measurement": "Cmax target safe level, Fold change", "setting": "human", "value": 1.77, "unit": "fold"}, {"measurement": "Cmax target safe level, Percent of baseline", "setting": "human", "value": 177, "unit": "%"}]}
{"molecule": "COc1cc(OC)cc(N(CCNC(C)C)c2ccc3ncc(-c4cnn(C)c4)nc3c2)c1", "note": "[erdafitinib]", "values": [{"measurement": "AUC target safe level, Fold change", "setting": "human", "value": 1.34, "unit": "fold"}, {"measurement": "AUC target safe level, Percent of baseline", "setting": "human", "value": 134, "unit": "%"}, {"measurement": "Cmax target safe level, Fold change", "setting": "human", "value": 1.05, "unit": "fold"}, {"measurement": "Cmax target safe level, Percent of baseline", "setting": "human", "value": 105, "unit": "%"}]}
{"molecule": "CCc1nc(C(N)=O)c(Nc2ccc(N3CCC(N4CCN(C)CC4)CC3)c(OC)c2)nc1NC1CCOCC1", "note": "[gilteritinib]", "values": [{"measurement": "AUC target safe level, Fold change", "setting": "human", "value": 2.2, "unit": "fold"}, {"measurement": "AUC target safe level, Percent of baseline", "setting": "human", "value": 220, "unit": "%"}, {"measurement": "Cmax target safe level, Fold change", "setting": "human", "value": 1.20, "unit": "fold"}, {"measurement": "Cmax target safe level, Percent of baseline", "setting": "human", "value": 120, "unit": "%"}]}
{"molecule": "CN1CC[C@@H](NC(=O)Nc2ccc(C#N)cc2)C[C@@H]1c1nc2ccccc2[nH]1", "note": "[glasdegib]", "values": [{"measurement": "AUC target safe level, Fold change", "setting": "human", "value": 2.4, "unit": "fold"}, {"measurement": "AUC target safe level, Percent of baseline", "setting": "human", "value": 240, "unit": "%"}, {"measurement": "Cmax target safe level, Fold change", "setting": "human", "value": 1.4, "unit": "fold"}, {"measurement": "Cmax target safe level, Percent of baseline", "setting": "human", "value": 140, "unit": "%"}]}
